Experimental data published in ChEMBL document CHEMBL1152245 (Bioorg Med Chem Lett, 2008).
The source made the active and inactive calls. The calls are words filed in the database; no cut-off is given here.

Assays:
Format in all cases: functional
[1] = target: T1, Muscarinic acetylcholine receptor M5 (Homo sapiens) (UniProt P08912); assay: Agonist activity at muscarinic M5 receptor at up to 30 uM
T1 sequence (whole entry): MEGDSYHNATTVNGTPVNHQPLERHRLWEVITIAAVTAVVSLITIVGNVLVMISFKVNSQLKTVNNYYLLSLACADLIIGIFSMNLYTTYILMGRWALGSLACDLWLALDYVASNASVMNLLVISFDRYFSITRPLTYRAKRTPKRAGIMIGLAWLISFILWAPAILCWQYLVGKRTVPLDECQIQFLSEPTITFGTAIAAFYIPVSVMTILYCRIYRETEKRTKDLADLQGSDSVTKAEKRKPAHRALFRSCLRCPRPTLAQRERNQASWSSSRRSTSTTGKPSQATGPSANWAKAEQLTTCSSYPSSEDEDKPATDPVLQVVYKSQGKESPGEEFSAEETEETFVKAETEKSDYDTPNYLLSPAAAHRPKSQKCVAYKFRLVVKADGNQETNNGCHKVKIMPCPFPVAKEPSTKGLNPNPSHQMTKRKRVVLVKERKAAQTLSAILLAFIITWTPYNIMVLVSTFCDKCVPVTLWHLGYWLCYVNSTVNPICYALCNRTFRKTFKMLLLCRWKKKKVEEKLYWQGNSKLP

[2] = target: T2, Muscarinic acetylcholine receptor M3 (Homo sapiens, UniProt P20309); assay: Agonist activity at muscarinic M3 receptor at up to 30 uM
Target sequence in this assay (P20309 whole entry, looked up): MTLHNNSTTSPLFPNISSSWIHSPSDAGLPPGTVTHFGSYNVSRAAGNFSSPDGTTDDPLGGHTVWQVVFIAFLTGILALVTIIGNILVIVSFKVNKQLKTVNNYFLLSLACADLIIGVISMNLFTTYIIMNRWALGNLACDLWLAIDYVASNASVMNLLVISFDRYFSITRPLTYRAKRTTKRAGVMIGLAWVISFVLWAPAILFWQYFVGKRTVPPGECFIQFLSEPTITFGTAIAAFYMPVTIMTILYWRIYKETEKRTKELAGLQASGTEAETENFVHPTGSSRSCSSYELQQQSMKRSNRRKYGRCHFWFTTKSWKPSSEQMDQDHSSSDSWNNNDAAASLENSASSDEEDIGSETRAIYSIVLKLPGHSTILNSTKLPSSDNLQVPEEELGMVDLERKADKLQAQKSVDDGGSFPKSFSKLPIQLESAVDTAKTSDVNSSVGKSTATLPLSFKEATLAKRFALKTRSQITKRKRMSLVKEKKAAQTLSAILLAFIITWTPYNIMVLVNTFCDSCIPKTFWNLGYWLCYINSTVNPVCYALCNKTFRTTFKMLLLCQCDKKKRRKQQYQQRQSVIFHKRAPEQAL

[3] = target: T3, Muscarinic acetylcholine receptor M2 (Homo sapiens) (UniProt P08172); assay: Agonist activity at muscarinic M2 receptor at up to 30 uM
T3 sequence (whole entry): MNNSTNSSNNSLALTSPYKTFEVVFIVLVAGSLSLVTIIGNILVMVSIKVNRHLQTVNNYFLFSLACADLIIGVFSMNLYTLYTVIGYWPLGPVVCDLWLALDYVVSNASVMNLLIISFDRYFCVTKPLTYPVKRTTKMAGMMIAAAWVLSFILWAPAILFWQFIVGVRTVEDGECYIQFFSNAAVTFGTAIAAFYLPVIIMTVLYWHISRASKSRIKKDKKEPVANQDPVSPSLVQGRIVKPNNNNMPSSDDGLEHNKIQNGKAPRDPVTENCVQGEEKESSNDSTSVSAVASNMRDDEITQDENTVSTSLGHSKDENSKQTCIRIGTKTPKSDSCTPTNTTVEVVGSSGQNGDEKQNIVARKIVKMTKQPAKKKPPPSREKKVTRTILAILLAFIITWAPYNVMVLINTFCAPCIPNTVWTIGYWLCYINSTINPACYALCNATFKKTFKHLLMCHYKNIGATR

[4] = target: T4, Muscarinic acetylcholine receptor M4 (Homo sapiens) (UniProt P08173); assay: Agonist activity at muscarinic M4 receptor at up to 30 uM
T4 sequence (whole entry): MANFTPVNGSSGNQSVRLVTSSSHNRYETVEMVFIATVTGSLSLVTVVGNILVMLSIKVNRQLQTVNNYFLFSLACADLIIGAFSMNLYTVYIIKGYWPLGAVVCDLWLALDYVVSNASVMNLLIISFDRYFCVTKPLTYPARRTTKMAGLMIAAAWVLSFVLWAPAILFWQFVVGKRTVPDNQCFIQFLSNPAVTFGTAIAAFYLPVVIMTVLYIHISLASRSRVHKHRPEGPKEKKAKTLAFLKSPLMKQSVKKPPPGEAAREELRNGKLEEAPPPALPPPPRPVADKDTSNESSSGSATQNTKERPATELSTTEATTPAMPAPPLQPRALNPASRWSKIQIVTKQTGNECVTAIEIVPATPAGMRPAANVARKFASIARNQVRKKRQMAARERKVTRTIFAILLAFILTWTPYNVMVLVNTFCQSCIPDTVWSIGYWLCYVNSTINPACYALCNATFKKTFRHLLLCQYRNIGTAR

[5] = target: T5, Muscarinic acetylcholine receptor M1 (Homo sapiens, UniProt P11229); assay: Agonist activity at muscarinic M1 receptor
T5 sequence (P11229 whole entry): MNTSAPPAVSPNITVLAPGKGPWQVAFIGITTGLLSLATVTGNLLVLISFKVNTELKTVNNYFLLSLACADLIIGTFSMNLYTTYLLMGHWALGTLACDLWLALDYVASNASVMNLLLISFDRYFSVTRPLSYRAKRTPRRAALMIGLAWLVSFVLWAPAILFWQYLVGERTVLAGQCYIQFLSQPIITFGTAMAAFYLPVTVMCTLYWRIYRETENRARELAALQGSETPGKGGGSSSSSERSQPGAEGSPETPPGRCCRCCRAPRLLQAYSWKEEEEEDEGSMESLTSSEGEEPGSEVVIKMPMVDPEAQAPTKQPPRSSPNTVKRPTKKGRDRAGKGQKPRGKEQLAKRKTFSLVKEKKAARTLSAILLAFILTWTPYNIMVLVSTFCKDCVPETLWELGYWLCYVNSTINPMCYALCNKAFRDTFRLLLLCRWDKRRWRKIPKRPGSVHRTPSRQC

[6] = target: T6, Muscarinic acetylcholine receptor M1 (Homo sapiens) (UniProt P11229); assay: Agonist activity at muscarinic M1 receptor relative to carbachol
T6 sequence (whole entry): T5 sequence (P11229 whole entry)

[7] = target: T7, Muscarinic acetylcholine receptor M4 (Homo sapiens, UniProt P08173); assay: Agonist activity at muscarinic M4 receptor
T7 sequence (P08173 whole entry): T4 sequence (whole entry)

D(2) dopamine receptor = D(2) dopamine receptor (Homo sapiens, UniProt P14416); assay: Antagonist activity at dopamine D2 receptor
Chain of D(2) dopamine receptor (P14416 whole entry): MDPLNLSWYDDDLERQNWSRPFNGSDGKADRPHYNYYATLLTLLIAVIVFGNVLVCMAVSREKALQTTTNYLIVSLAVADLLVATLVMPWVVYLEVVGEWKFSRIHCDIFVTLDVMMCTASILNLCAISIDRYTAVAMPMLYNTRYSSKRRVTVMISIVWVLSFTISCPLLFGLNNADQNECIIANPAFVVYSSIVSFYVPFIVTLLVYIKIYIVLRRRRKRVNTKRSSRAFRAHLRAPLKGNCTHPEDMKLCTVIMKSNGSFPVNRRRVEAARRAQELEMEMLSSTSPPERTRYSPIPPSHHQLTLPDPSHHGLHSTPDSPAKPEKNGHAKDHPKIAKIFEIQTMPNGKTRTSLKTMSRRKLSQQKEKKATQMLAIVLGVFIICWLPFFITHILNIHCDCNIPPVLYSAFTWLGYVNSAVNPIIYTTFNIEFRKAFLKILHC

[8] = target: T2, Muscarinic acetylcholine receptor M3; assay: Agonist activity at muscarinic M3 receptor
Target sequence in this assay (P20309 whole entry): as the sequence (P20309 whole entry, looked up) above

[9] = target: T8, Muscarinic acetylcholine receptor M5 (Homo sapiens, UniProt P08912); assay: Agonist activity at muscarinic M5 receptor
T8 sequence (P08912 whole entry): T1 sequence (whole entry)

[10] = target: T9, Muscarinic acetylcholine receptor M2 (Homo sapiens, UniProt P08172); assay: Agonist activity at muscarinic M2 receptor
T9 sequence (P08172 whole entry): T3 sequence (whole entry)

[11] = target: T3, Muscarinic acetylcholine receptor M2 (Homo sapiens); assay: Agonist activity at muscarinic M2 receptor relative to carbachol
[12] = target: T1, Muscarinic acetylcholine receptor M5 (Homo sapiens); assay: Agonist activity at muscarinic M5 receptor relative to carbachol
[13] = target: T4, Muscarinic acetylcholine receptor M4 (Homo sapiens); assay: Agonist activity at muscarinic M4 receptor relative to carbachol

## O=C(c1ccccc1C(F)(F)F)N1CCC(N2CCC(n3c(=O)[nH]c4ccccc43)CC2)CC1
[1]
  Activity: inactive
[2]
  Activity: inactive
[3]
  Activity: inactive
[4]
  Activity: inactive
[5]
  EC50: 910 nM
[6]
  Activity: 32%

## O=c1[nH]c2ccccc2n1C1CCN(C2CCN(Cc3ccccc3C(F)(F)F)CC2)CC1
[6]
  Activity: 80%

## Cc1cccc(C(=O)N2CCC(N3CCC(n4c(=O)[nH]c5cc(Cl)ccc54)CC3)CC2)c1
[1]
  Activity: inactive
[2]
  Activity: inactive
[3]
  Activity: inactive
[4]
  Activity: inactive
[5]
  EC50: 2110 nM
[6]
  Activity: 50%

## O=C(c1cccc(Cl)c1)N1CCC(N2CCC(n3c(=O)[nH]c4ccccc43)CC2)CC1
[1]
  Activity: inactive
[2]
  Activity: inactive
[3]
  Activity: inactive
[4]
  Activity: inactive
[5]
  EC50: 930 nM
[6]
  Activity: 21%

## O=c1[nH]c2cc(F)ccc2n1C1CCN(C2CCN(S(=O)(=O)c3ccccc3)CC2)CC1
[7]
  EC50: > 30 µM
D(2) dopamine receptor
  IC50: 3.6 µM
[8]
  EC50: > 30 µM
[9]
  EC50: > 30 µM
[5]
  EC50: 2300 nM
[10]
  EC50: > 30 µM
[6]
  Activity: 82%

## O=C(c1ccccc1C(F)(F)F)N1CCC(N2CCC(n3c(=O)[nH]c4cc(Cl)ccc43)CC2)CC1
[1]
  Activity: inactive
[2]
  Activity: inactive
[3]
  Activity: inactive
[4]
  Activity: inactive
[5]
  EC50: 11100 nM
[6]
  Activity: 24%

## O=C(Nc1cccc(SC(F)(F)F)c1)N1CCC(N2CCC(n3c(=O)[nH]c4cc(Cl)ccc43)CC2)CC1
[7]
  EC50: > 30 µM
[8]
  EC50: > 30 µM
[5]
  EC50: 3600 nM
[10]
  EC50: > 30 µM
[6]
  Activity: 90%

## O=c1[nH]c2c(F)cccc2n1C1CCN(C2CCN(S(=O)(=O)c3ccccc3)CC2)CC1
[7]
  EC50: > 30 µM
[8]
  EC50: > 30 µM
[5]
  EC50: 2600 nM
[10]
  EC50: > 30 µM
[6]
  Activity: 49%

## O=c1[nH]c2ccc(F)cc2n1C1CCN(C2CCN(S(=O)(=O)c3ccccc3)CC2)CC1
[7]
  EC50: > 30 µM
D(2) dopamine receptor
  IC50: > 10 µM
[8]
  EC50: > 30 µM
[9]
  EC50: > 30 µM
[5]
  EC50: 3300 nM
[10]
  EC50: > 30 µM
[6]
  Activity: 76%

## Cc1ccccc1CN1CCC(N2CCC(n3c(=O)[nH]c4ccccc43)CC2)CC1
D(2) dopamine receptor
  IC50: 5.1 µM

## Cc1ccccc1C(=O)N1CCC(N2CCC(n3c(=O)[nH]c4cc(Cl)ccc43)CC2)CC1
[1]
  Activity: inactive
[2]
  Activity: inactive
[3]
  Activity: inactive
[4]
  Activity: inactive
[5]
  EC50: 2710 nM
[6]
  Activity: 56%

## NC(=O)OCCN1CCC(N2CCC(n3c(=O)[nH]c4ccccc43)CC2)CC1
[7]
  EC50: 0.0091 µM
[11]
  Activity: 80.6%
[12]
  Activity: 50.8%
[13]
  Activity: 96.9%
[9]
  EC50: 0.0343 µM
[10]
  EC50: 0.0119 µM

## O=C(Nc1cccc(SC(F)(F)F)c1)N1CCC(N2CCC(n3c(=O)[nH]c4c(F)cccc43)CC2)CC1
[7]
  EC50: > 30 µM
[8]
  EC50: > 30 µM
[5]
  EC50: > 10000 nM
[10]
  EC50: > 30 µM
[6]
  Activity: 46%

## Cc1ccccc1C(=O)N1CCC(N2CCC(n3c(=O)[nH]c4ccccc43)CC2)CC1
[1]
  Activity: inactive
[2]
  Activity: inactive
[3]
  Activity: inactive
[4]
  Activity: inactive
[5]
  EC50: 880 nM
[6]
  Activity: 60%

## O=c1[nH]c2cc(Cl)ccc2n1C1CCN(C2CCN(S(=O)(=O)c3ccccc3)CC2)CC1
[7]
  EC50: > 30 µM
[8]
  EC50: > 30 µM
[5]
  EC50: 4100 nM
[10]
  EC50: > 30 µM
[6]
  Activity: 82%

## O=c1[nH]c2cc(Br)ccc2n1C1CCN(C2CCN(S(=O)(=O)c3ccccc3)CC2)CC1
[7]
  EC50: > 30 µM
[8]
  EC50: > 30 µM
[5]
  EC50: 4400 nM
[10]
  EC50: > 30 µM
[6]
  Activity: 81%

## O=C(Nc1cccc(SC(F)(F)F)c1)N1CCC(N2CCC(n3c(=O)[nH]c4ccc(F)cc43)CC2)CC1
[7]
  EC50: > 30 µM
[8]
  EC50: > 30 µM
[5]
  EC50: 9600 nM
[10]
  EC50: > 30 µM
[6]
  Activity: 72%

## O=C(Nc1cccc(SC(F)(F)F)c1)N1CCC(N2CCC(n3c(=O)[nH]c4ccccc43)CC2)CC1
[7]
  EC50: > 30 µM
[8]
  EC50: > 30 µM
[5]
  EC50: 6500 nM
[10]
  EC50: > 30 µM
[6]
  Activity: 85%

## Cc1cccc(C(=O)N2CCC(N3CCC(n4c(=O)[nH]c5ccccc54)CC3)CC2)c1
[1]
  Activity: inactive
[2]
  Activity: inactive
[3]
  Activity: inactive
[4]
  Activity: inactive
[5]
  EC50: 510 nM
[6]
  Activity: 53%

## O=C(c1cccc(Cl)c1)N1CCC(N2CCC(n3c(=O)[nH]c4cc(Cl)ccc43)CC2)CC1
[1]
  Activity: inactive
[2]
  Activity: inactive
[3]
  Activity: inactive
[4]
  Activity: inactive
[5]
  EC50: 7110 nM
[6]
  Activity: 21%

## O=c1[nH]c2ccccc2n1C1CCN(C2CCN(S(=O)(=O)c3ccccc3)CC2)CC1
[5]
  EC50: 1400 nM
[6]
  Activity: 82%
